This is an account of results in ChEMBL document CHEMBL1145484, “Evaluation of the metS and murB loci for antibiotic discovery using targeted antisense RNA expression analysis in Bacillus anthracis” (2007).

Each structure is given as a SMILES string. Values after ≈ are worked out from the molar mass of the structure shown.

Usually MIC stands for the lowest concentration found to suppress growth. Low values mean greater potency, high ones weaker potency.

The subject of the test is Bacillus anthracis. Description: Antibacterial activity against Bacillus anthracis UM23C1-1. In kind it is functional.

For `O=C(O)c1ccc(OCc2nc3ccccc3[nH]2)c(OCc2ccc(Cl)cc2Cl)c1`, the lowest concentration to inhibit growth (MIC) was 2 µg/mL (≈ 4.51 µM).
